Results as given in patent US8193378B2, “2H-chromene compound and derivative thereof” (Astellas Pharma Inc., priority 2008, dated 2012).

Assays:
human S1P1 = target: T1, human S1P1 (Homo sapiens, UniProt P21453); assay: Ca2+ influx assay using human S1P1 expressing cell (Test Example 1, Method 2); assay type: cell-based; conditions: method 2, Ca2+ influx, human S1P1 expressing CHO cell (values with *); read-out: A: EC50, in vitro S1P1 agonist action (value with *)
T1 construct: expressed in transfected cells; membrane fraction used
Method: Evaluation of In Vitro S1P1 Receptor Agonist Activity in Biological Body
(Method 2) Method for Evaluation of Receptor Agonist Action by Ca^2+ Influx Assay Using Human S1P1 Expressing Cell
The in vitro S1P1 agonist action of the compound of the present invention was evaluated by the increase in the Ca^2+ concentration in a human S1P1 expressing cell. A cDNA encoding a human S1P1 was cloned from a human colorectal cDNA library and introduced to an expression vector pcDNA3.1 to construct a S1P1-pcDNA3.1. Then, by Lipofectamine 2000 (GIBCO), the S1P1-pcDNA3.1 was transfected into a CHO cell, and cultured in a Ham's F-12 culture medium containing 10% fetal bovine serum, 100 U/mL penicillin, 100 μg/mL streptomycin, and 1 mg/mL G418 disulfate, to obtain a stable, G418-resistant strain. The cultured human S1P1 expressing cells were isolated in a 1 mM EDTA.2Na-containing PBS and suspended in a Ham's F-12 culture medium containing 10% fetal bovine serum, 100 U/mL penicillin, and 100 μg/mL streptomycin. This cell suspension was dispensed to a 96-well plate at 50000 cells/well, and cultured at a CO2 incubator (5% CO2, 37° C.) overnight. The culture medium was replaced with a calcium-sensitive fluorescent reagent (FLIPR (registered trademark) calcium 3 assay kit, molecular device)-containing loading buffer (Hank's balance salt solution, 20 mM HEPES, 2.5 mM probenecid) and left stand at a CO2 incubator (5% CO2, 37° C.) for 1 hour. The plate was set at a Functional Drug Screening System FDSS6000 (Hamamatsu Photonics K. K.), and persistently measured 124 times every 1.02 second at an excitation wavelength of 480 nm. The test compound (final concentration 10^−12 to 10^−5 M) was added at the same time as the 12th measurement, and the change in the Ca^2+ concentration in cells was evaluated by the change in the fluorescent strength. For evaluation of the human S1P1 agonist action of the compound of the present invention and the comparative compound, the percentages with the rate of a maximum reaction to make the increase in the Ca^2+ concentration in cells saturated after the addition of the compound being set at 100% and the rate of the increase in the Ca^2+ concentration in cells by the addition of a vehicle alone being set at 0% were used, a non-linear regression curve was plotted, and a concentration to cause an agonist action operating 50% of the maximum reaction was defined as an EC50 value (nM).

[1] = tested on: peripheral blood lymphocytes; assay: Reduction of number of peripheral blood lymphocytes in rat (Test Example 2); assay type: in vivo; conditions: Lymphocyte, male Lewis rats, oral, 24 hours after administration, read-out: B: ED50 24 h, reduction of number of lymphocytes in peripheral blood
Method: Evaluation of Reduction of Number of Peripheral Blood Lymphocytes in Rat
The action on the peripheral blood lymphocytes were evaluated using rats. 6- to 10-week-old male Lewis rats (Japan Charles River Laboratories Japan, Inc.) were randomly divided into groups (n=3), and the compound of the present invention was suspended in 0.5% methyl cellulose-containing distilled water, and orally administered with a sonde. At 4 hours or 24 hours after administration, 0.2 ml of blood was collected from the ocular fundus under ether anesthesia. To the blood sample were immediately added EDTA.4K and heparin to prevent clotting, and the number of the lymphocytes in blood was measured with an automatic hematocyte analyzer (Sysmex Corp.; XT-2000i). For the reduction of the number of the lymphocytes in peripheral blood by the compound of the present invention, the percentage with the number of the lymphocytes in groups administered with 0.5% methyl cellulose-containing distilled water being set at 100%, as performed at the same time, were used, and the dose to cause 50% reduction of the number of the lymphocytes in the peripheral blood by administration of the compound of the present invention was defined as an ED50 value (mg/kg).

[2] = Infrequent pulse expression using awake rats (Test Example 5); assay type: in vivo, rat; conditions: awake male Lewis rats, intravenous infusion for 10 minutes, 1 mg/kg administration
Method: Evaluation of Infrequent Pulse Expression Using Awake Rats Male Lewis rats were anesthetized with isoflurane inhalation and a polyethylene tube was intubated into the femoral artery and vein. It was connected to a blood pressure measuring amplifier•heart rate unit via a pressure transducer from an arterial line, and the arterial blood pressure and the heart rate were measured. Intravenous line from Vehicle (10% HCO40/tween80/PEG, 90% saline) and the present compounds were intravenously infused persistently at a rate of 1 mL/kg/min for 10 minutes. The measurement data were read (for a total evaluation time of 20 minutes) from a chart of the values before administration, at 1, 2, 5, and 10 min after the start of constant infusion, and at 1, 2, 5, and 10 min after the completion of infusion, and thus, for the heart rate and the blood pressure before administration, the decrease rates (%) before and after infusion were calculated.

T1 sequence (P21453 whole entry): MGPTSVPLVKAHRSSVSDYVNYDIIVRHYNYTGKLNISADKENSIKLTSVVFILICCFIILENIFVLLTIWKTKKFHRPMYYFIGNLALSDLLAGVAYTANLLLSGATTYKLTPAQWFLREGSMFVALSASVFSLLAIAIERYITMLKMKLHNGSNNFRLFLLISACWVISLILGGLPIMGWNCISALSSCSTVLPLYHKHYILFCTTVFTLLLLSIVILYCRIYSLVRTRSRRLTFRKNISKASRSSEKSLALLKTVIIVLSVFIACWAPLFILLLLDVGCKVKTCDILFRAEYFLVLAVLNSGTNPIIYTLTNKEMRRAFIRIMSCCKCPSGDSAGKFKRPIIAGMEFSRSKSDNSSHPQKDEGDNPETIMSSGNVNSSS

Row | EC50 (human S1P1) [nM] | infrequent pulse expression [2] | Structure (SMILES) | ED50 [1] [mg/kg] | influence on the heart rate and the blood pressure [2]
1 | 7 | not expressed | Cl.O=C(O)[C@H]1CCCN(CC2=Cc3c(F)cc(OCc4ccc(OC(CF)CF)c(C(F)(F)F)c4)cc3OC2)C1 [Ex 230] | 0.19 | does not have an influence
2 | 5.5 |  | C[C@H](Oc1ncc(COc2ccc3c(c2)OCC(CN2CCC=C(C(=O)O)C2)=C3)cc1Cl)C(F)(F)F.Cl [Ex 183] | 0.21 | 
3 | 1.1 |  | Cl.O=C(O)[C@@H]1CCCN(CC2=Cc3c(F)cc(OCc4ccc(OC(CF)CF)c(Cl)c4)cc3OC2)C1 [Ex 223] | 0.32 | 
